According to the NIST ThermoML archive (doi:10.1021/je800335v):

Assays:
[1] = molar heat capacity at constant pressure; conditions: 101.33 kPa, Liquid, Small sample (50 mg) DSC
[2] = molar heat capacity at constant pressure; xn = mol fraction of the nth substance listed; conditions: 298 K, 101 kPa, Liquid, Small sample (50 mg) DSC

CCCC[N+]1(C)CCCC1.O=S(=O)([N-]S(=O)(=O)C(F)(F)F)C(F)(F)F
[1]
Conditions | molar heat capacity at constant pressure [J/K/mol]
293 K | 630
298 K | 629
303 K | 632
308 K | 639
313 K | 644
318 K | 650
323 K | 654
328 K | 656
333 K | 659
338 K | 661
343 K | 660
348 K | 659
353 K | 658

CCn1cc[n+](C)c1.O=S(=O)([N-]S(=O)(=O)C(F)(F)F)C(F)(F)F
[1]
Conditions | molar heat capacity at constant pressure [J/K/mol]
293 K | 523
298 K | 525
303 K | 527
308 K | 529
313 K | 533
318 K | 535
323 K | 538
328 K | 539
333 K | 542
338 K | 545
343 K | 547
348 K | 548
353 K | 550
358 K | 551

CCCCCC[n+]1ccn(C)c1.O=S(=O)([N-]S(=O)(=O)C(F)(F)F)C(F)(F)F
[1]
Conditions | molar heat capacity at constant pressure [J/K/mol]
293 K | 669
298 K | 667
303 K | 667
308 K | 668
313 K | 671
318 K | 673
323 K | 675
328 K | 676
333 K | 679
338 K | 680
343 K | 683
348 K | 685
353 K | 687
358 K | 689

CCCCCCCCCCCCCC[P+](CCCCCC)(CCCCCC)CCCCCC.O=S(=O)([N-]S(=O)(=O)C(F)(F)F)C(F)(F)F
[1]
Conditions | molar heat capacity at constant pressure [J/K/mol]
293 K | 1366
298 K | 1366
303 K | 1368
308 K | 1372
313 K | 1379
318 K | 1384
323 K | 1389
328 K | 1389
333 K | 1395
338 K | 1397
343 K | 1402
348 K | 1405
353 K | 1409
358 K | 1413

CCOS(=O)(=O)[O-].CCn1cc[n+](C)c1 [1-ethyl-3-methylimidazolium ethyl sulfate]
[1]
Conditions | molar heat capacity at constant pressure [J/K/mol]
293 K | 388
298 K | 389
303 K | 391
308 K | 394
313 K | 398
318 K | 402
323 K | 406
328 K | 410
333 K | 415
338 K | 420
343 K | 427
348 K | 433
353 K | 440
358 K | 447

CCCC[n+]1ccn(C)c1.O=S(=O)([N-]S(=O)(=O)C(F)(F)F)C(F)(F)F
[1]
Conditions | molar heat capacity at constant pressure [J/K/mol]
293 K | 595
298 K | 599
303 K | 603
308 K | 607
313 K | 612
318 K | 617
323 K | 621
328 K | 624
333 K | 628
338 K | 631
343 K | 634
348 K | 636
353 K | 639
358 K | 641

CCCCn1cc[n+](C)c1.O=S(=O)([O-])C(F)(F)F [1-butyl-3-methylimidazolium trifluoromethanesulfonate] + O
[2]
Conditions | molar heat capacity at constant pressure [J/K/mol]
x2 = 0.0108 | 448
x2 = 0.137 | 401
x2 = 0.3379 | 325
x2 = 0.5215 | 257

CCCCn1cc[n+](C)c1.O=S(=O)([O-])C(F)(F)F [1-butyl-3-methylimidazolium trifluoromethanesulfonate]
[1]
Conditions | molar heat capacity at constant pressure [J/K/mol]
293 K | 455
298 K | 457
303 K | 459
308 K | 461
313 K | 465
318 K | 469
323 K | 473
328 K | 477
333 K | 481
338 K | 486
343 K | 490
348 K | 495
353 K | 500
358 K | 504

CCCCCCCCn1cc[n+](C)c1.O=S(=O)([N-]S(=O)(=O)C(F)(F)F)C(F)(F)F
[1]
Conditions | molar heat capacity at constant pressure [J/K/mol]
293 K | 724
298 K | 733
303 K | 741
308 K | 748
313 K | 756
318 K | 765
323 K | 773
328 K | 779
333 K | 788
338 K | 795
343 K | 803
348 K | 810
353 K | 817
358 K | 825

CCCC[N+]1(C)CCCC1.FC(F)(F)C(F)(F)[P-](F)(F)(F)(C(F)(F)C(F)(F)F)C(F)(F)C(F)(F)F
[1]
Conditions | molar heat capacity at constant pressure [J/K/mol]
293 K | 767
298 K | 769
303 K | 773
308 K | 776
313 K | 781
318 K | 785
323 K | 788
328 K | 791
333 K | 796
338 K | 799
343 K | 803
348 K | 806
353 K | 809
358 K | 812

CCCC[n+]1ccn(C)c1.O=S(=O)([N-]S(=O)(=O)C(F)(F)F)C(F)(F)F + CCCCn1cc[n+](C)c1.[Cl-]
[2]
Conditions | molar heat capacity at constant pressure [J/K/mol]
x2 = 0.0919 | 549
x2 = 0.2394 | 515
x2 = 0.4129 | 468
x2 = 0.5832 | 420
